Data reported in patent US7973219B2, “Method for producing transgenic plants resistant to weed control compounds which disrupt the porphyrin pathways of plants” (Sumitomo Chemical Company, Limited, priority 1998, dated 2011).

Legend:
[1] = tested on: tobacco introduced with the gene encoding the variant barley ferrochelatase; assay: Leaf piece chlorophyll test, tobacco with gene encoding variant barley ferrochelatase; type: in vivo; settings: Table 12; for Resistant level to test compound: same manner as Example 6 (0.3 ppm), treated vs untreated leaf pieces; for Total chlorophyll content treated-leaf: same manner as Example 6 (0.3 ppm, 7 days in light)
Text: The tobacco leaves into which bchH gene was introduced and control recombinant tobacco leaves obtained in Example 5 were collected and each leaf was divided into the right and left equivalent pieces along the main vein, respectively. To one piece was applied an aqueous solution containing 0.3 ppm PPO inhibitory-type herbicidal compound of Structure 8, while, to the other piece was not applied the compound. These leaf pieces were placed on MS medium containing 0.8% agar and allowed to stand at room temperature for 7 days in light place. Then, each leaf piece was ground with pestle and mortar in 5 ml of 80% aqueous acetone solution to extract chlorophyll. The extract liquid was diluted with 80% aqueous acetone solution and the absorbance was measured at 750 nm, 663 nm and 645 nm to calculate total chlorophyll content according to the method described by Macknney G., J. Biol. Chem. (1941) 140, p 315. The results obtained from 4 clones of tobacco into which bchH gene was introduced (BCH1 to 4) and control recombinant tobacco is shown in Table 4. In the table, the resistant level to the herbicidal compound was represented by percentages of the total chlorophyll content of leaf pieces treated with herbicidal compound to that of untreated leaf pieces.
Leaf pieces of tobacco cultured sterilely were infected with said Agrobacterium strain and, according to the same manner as in Example 5, tobacco into which the gene encoding the variant barley ferrochelatase was introduced was obtained.
The level of resistance to the PPO inhibitory-type herbicidal compound represented by Structure 8 was confirmed quantitatively by testing tobacco into which the gene encoding the variant barley ferrochelatase prepared in Example 21 was introduced according to the same manner as in Example 6. The results obtained from 4 clones (HVF 1-4) of tobacco introduced with the gene encoding the variant barley ferrochelatase and control recombinant tobacco are shown in table 12. In the table, the resistant levels to the herbicidal compound are represented by percentages of the total chlorophyll content of leaf pieces treated with herbicidal compound to that of untreated leaf pieces.

[2] = tested on: tobacco bearing the introduced Arabidopsis thaliana PPO(A220V) gene; assay: Leaf piece chlorophyll test, tobacco with Arabidopsis thaliana PPO(A220V) gene; type: in vivo; settings: 2.0 ppm, 7 days in a light place, treated vs untreated leaf pieces, Example 37
Text: Tobacco leaf pieces cultured sterilely were infected with the Agrobacterium strain and, according to the same manner as described in Example 5, tobacco bearing the introduced Arabidopsis thaliana PPO(A220V) gene was obtained.
Leaves of the tobacco bearing the introduced both Arabidopsis thaliana PPO(A220V) gene and gene encoding the variant tobacco chelatase subunit produced in Example 36, those bearing the introduced Arabidopsis thaliana PPO(A220V) gene produced in Example 35, and the control recombinant tobacco leaves produced in Example 5were collected, and each leaf was divided into the right and left equivalent pieces along the main vein. One of the pieces was treated with an aqueous solution containing 2.0 ppm PPO inhibitory-type herbicidal compound of Structure 8, while the other piece was not treated with the compound. These leaf pieces were placed on MS medium containing 0.8% agar and allowed to stand at room temperature for 7 days in a light place. Then, each leaf piece was ground in 5 ml of 80% aqueous acetone solution in a mortar with a pestle to extract chlorophyll. The extract was diluted 10 times with 80% aqueous acetone solution and the absorbance was measured at 750 nm, 663 nm and 645 nm to calculate the total chlorophyll content according to the method described by Macknney G., J. Biol. Chem. (1941) 140, p 315. […]

C#CCOc1cc(N2C(=O)C3=C(CCCC3)C2=O)c(F)cc1Cl [Structure 8]
Resistant level to test compound ([1]; clone HVF-1): 106%
Total chlorophyll content treated-leaf ([1]; clone HVF-1): 0.930 mg/g-fresh weight
Resistant level to test compound ([1]; clone HVF-2): 102%
Total chlorophyll content treated-leaf ([1]; clone HVF-2): 1.16 mg/g-fresh weight
Resistant level to test compound ([1]; clone HVF-3): 98.1%
Total chlorophyll content treated-leaf ([1]; clone HVF-3): 1.04 mg/g-fresh weight
Resistant level to test compound ([1]; clone HVF-4): 95.9%
Total chlorophyll content treated-leaf ([1]; clone HVF-4): 1.42 mg/g-fresh weight
resistant level [2]: 12.2%
